Numbered stars: 1 amine (or outer) side, 2 acyl side, 3 side chain; on linkers, the order of the positions; unused ones are H or OH. Bridge positions count the residues as written; N and C are the ends. Square brackets hold non-standard residues; d marks the D form. Ends that are not written are not given here. * marks the point of attachment. X1 = CC(=O)N[C@@H]1[C@@H](O)[C@H](O[C@@H]2O[C@H](CO)[C@@H](O[C@@H]3O[C@H](CO[C@H]4O[C@H](CO[C@H]5O[C@H](CO)[C@@H](O)[C@H](O)[C@@H]5O[C@H]5O[C@H](CO)[C@@H](O)[C@H](O)[C@@H]5O)[C@@H](O)[C@H](O[C@H]5O[C@H](CO)[C@@H](O)[C@H](O)[C@@H]5O[C@H]5O[C@H](CO)[C@@H](O)[C@H](O)[C@@H]5O)[C@@H]4O)[C@@H](O)[C@H](O[C@H]4O[C@H](CO)[C@@H](O)[C@H](O)[C@@H]4O[C@H]4O[C@H](CO)[C@@H](O)[C@H](O)[C@@H]4O[C@H]4O[C@H](CO)[C@@H](O)[C@H](O)[C@@H]4O)[C@@H]3O)[C@H](O)[C@H]2NC(C)=O)[C@@H](CO)O[C@H]1n1cc(CC[C@H](N[*:1])C(=O)[*:2])nn1; Biotin = O=C1N[C@H]2[C@H](CS[C@H]2CCCCC(=O)*)N1; mXylylene = c1cc(C[*:1])cc(C[*:2])c1
What was measured:
PGT128 = experiment: Biolayer interferometry (BLI) of immobilized biotinylated glycopeptides binding to PGT128; conditions: for fold decrease in PGT128 binding relative to parent H1 glycopeptide: BLI KD compared with H1 (peptide 1)
Description: 6 Biolayer interferometry (BLI) measurement of glycopeptides immobilized via biotin on a streptavidin biosensor binding to PGT128. All sensorgrams represent a series of 2-fold dilutions of antibody with highest concentration tested labeled. All sequences followed by GSGSGK(Biotin). M denotes homopropargylglycine, modified by CuAAC as in Figure .
C. Binding Analysis of PGT Antibody-Peptide/Glycopeptide Interactions by Biolayer Interferometry
1. Biolayer Interferometry Protocol
Biotinylated glycopeptide was loaded onto a streptavidin biosensor in 250 µL buffer 1 (500 to 1000 nM […] glycopeptide in 20 mM Tris pH 7.5, 150 mM NaCl, 0.2 mg/ml BSA, 0.02% (v/v) Tween-20) for 120s in a […] of black Eppendorf tube. The sensor was then washed with 250 µL of blank buffer 1 for 120 seconds in a […] black Eppendorf tube. The sensor was washed with 250 µL buffer 3 (10 mM glycine HCl, pH 2.5) for 120 seconds in […] of black Eppendorf tube and followed by 250 µL of blank buffer 1 for 120 seconds in a […] black Eppendorf tube to immobilize glycopeptides in a range of 0.5 nm to 2 nm response. The sensor was then equilibrated with 250 µL of buffer 2 (20 mM Tris pH 7.5, 150 mM NaCl, 2 mg/ml BSA, 0.1% (v/v) Tween-20) for 120 seconds in a […] of black Eppendorf tube PGT antibody (prepared in buffer 2) was associated at several concentrations for 300 seconds in 4 µL drop holder followed by dissociation into blank 250 µL of buffer 2 for 300 seconds in […] of black Eppendorf tube. After each dissociation sensor was regenerated to remove the remaining antibody by treatment with 250 µL of buffer 3 for 120 seconds, followed by 120 seconds of wash with 250 µL buffer 1 and re-equilibration with 250 µL buffer 2 in […] of black Eppendorf tube. Throughout the experiment, the shaker rate was set at 2200 rpm. Data were fit globally to a 1:1 binding model.
2. BLI Sensorgram of H1-QQQ-non-glycosylated Peptide with PGT128
Figure S33. […]

HIV pseudovirus panel = conditions: ref number not given, cited from earlier work
Description: We have sought to mimic HMP epitopes without using either the entire Env protein, which contains a plethora of “distracting” epitopes that easily elicit off-target antibodies; − or short glycopeptides directly derived from the Env sequence, which may not sufficiently recapitulate the HMP structure without the conformational support of the remaining Env protein. Aiming to design glycostructures that better mimic the glycan presentation in the HMP, we have pioneered various techniques for the directed evolution of DNA, , RNA, F-RNA, or peptide-supported , glycan clusters.

HIV Env = conditions: read-out: reported affinities of PGT122 for HIV Env; ref number not given; cited from earlier work
Description: We performed preliminary binding assays for those sequences and others using translated peptides with or without attached glycans. No sequ ...

[1] = diverse/representative HIV pseudovirus panel

“ALFKPYPKIGDIRKARC[X1]LQHTLHHRTNKQPSYRRRLKTLIPLFRRC[X1]LGSGSGK(Biotin)-NH2 (linker 17-47 via mXylylene; C-terminus assumed) [compound 2]” showed a Kd (PGT128; BLI, peptide immobilized via biotin on streptavidin biosensor, 2-fold dilutions of PGT128 in 20 mM Tris pH 7.5, 150 mM NaCl, 2 mg/ml BSA, 0.1% Tween-20, 300 s association, 300 s dissociation, global 1:1 fit) of 16.9 nM.
In the case of “AYTEKHNGIGDIRPAIC[X1]NSKNQNHRCNHYQIKLYIHQLQRLPHNYRNSGSGSGK(Biotin)-NH2 (linker 17-27 via mXylylene; C-terminus assumed) [peptide 4]”, the “fold decrease in PGT128 binding relative to parent H1 glycopeptide” value (PGT128) is reported as ~40 fold.
For “PGT122: HIV bnAb binding the High Mannose Patch”, the “breadth (fraction of HIV pseudovirus panel neutralized)” value (HIV pseudovirus panel; [1]) is listed as 65%, the “median IC50” value (HIV pseudovirus panel; [1]) is listed as 0.05 µg/mL and the “potency (EC50)” value (HIV pseudovirus panel; neutralization potency) is listed as 0.05 µg/mL. For the same substance, the Kd (HIV Env) was 100 to 174 nM.
For “AYTEKHNGIGDIRPAICQNSKNQNHRCNHYQIKLYIH[X1]L[X1]RLPHNYRNSGSGSGK(Biotin)-NH2 (linker 17-27 via mXylylene; C-terminus assumed) [peptide 3]”, the “fold decrease in PGT128 binding relative to parent H1 glycopeptide” value (PGT128) was ~2 fold.
